Source: patent US12637471B2, “Heterocyclic compounds, compositions, methods of preparation and uses thereof” (Organon R&D Finland Ltd, priority 2021, dated 2026)

Experiments:
Assay type in all cases: biochemical
[1] = target: T1, Recombinant human AKR1C3 (17β-HSD5) protein (Homo sapiens, UniProt P42330); assay: Inhibition of AKR1C3 (17β-hydroxysteroid dehydrogenase type 5) enzyme, fluorescence assay; settings: inhibitor at 500 nM
T1 construct: made in house; host or cells: E. coli
T1 sequence (P42330 1-323): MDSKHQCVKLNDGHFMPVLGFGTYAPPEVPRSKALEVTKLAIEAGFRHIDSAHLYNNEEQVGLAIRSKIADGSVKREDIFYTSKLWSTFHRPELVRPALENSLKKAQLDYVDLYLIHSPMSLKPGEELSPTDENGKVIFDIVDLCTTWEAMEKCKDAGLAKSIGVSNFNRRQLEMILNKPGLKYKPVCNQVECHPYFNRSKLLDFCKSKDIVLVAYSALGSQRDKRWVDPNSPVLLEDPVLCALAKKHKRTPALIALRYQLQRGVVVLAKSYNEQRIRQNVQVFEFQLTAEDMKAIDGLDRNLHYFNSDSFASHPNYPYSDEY
How it was run: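 Percent inhibition at 500 nM compound, derived from substrate conversion; product alcohol measured by fluorescence (ex 420, em 510 nm) against a 1 μM–10 nM standard curve. Reaction: 27 nM recombinant AKR1C3, 1 μM ketone substrate, 1 mM NADPH, phosphate/EDTA buffer pH 7.4, 1% DMSO, RT for 60–120 min.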

[2] = target: T2, Recombinant human aldo-keto reductase family 1 member C2 (AKR1C2) protein (Homo sapiens, UniProt P52895); assay: Inhibition of the aldo-keto reductase family 1 member C2, 3H-dihydrotestosterone conversion; settings: inhibitor at 10 μM
T2 construct: made in house; host or cells: Sf-9 insect cells (baculovirus)
T2 sequence (P52895 1-323): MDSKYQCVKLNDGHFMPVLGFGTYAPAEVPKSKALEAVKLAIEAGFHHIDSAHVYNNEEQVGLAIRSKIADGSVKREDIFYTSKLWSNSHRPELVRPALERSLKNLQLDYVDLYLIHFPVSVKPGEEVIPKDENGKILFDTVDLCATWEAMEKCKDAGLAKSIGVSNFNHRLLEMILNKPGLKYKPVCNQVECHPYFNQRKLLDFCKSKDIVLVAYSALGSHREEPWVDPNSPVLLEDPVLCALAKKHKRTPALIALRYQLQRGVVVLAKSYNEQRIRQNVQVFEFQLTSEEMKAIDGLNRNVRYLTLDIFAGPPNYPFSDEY
How it was run: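 Single-point screen at 10 μM inhibitor, 1% DMSO: [3H]DHT (6.25 nM) reduction to 3α-diol by baculovirus-made AKR1C2 (13.6 nM), pH 7.4 phosphate buffer, 1 mM NADPH, 37 °C for 45 min. Radio-UPLC quantified product versus substrate to give percent inhibition.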

[3] = target: T3, 17β-Hydroxysteroid Dehydrogenase Type 2 Enzyme (17β-HSD2) (Homo sapiens, UniProt P37059); assay: Inhibition of the 17β-hydroxysteroid dehydrogenase type 2 enzyme, 3H-testosterone conversion; settings: inhibitor at 10 μM
T3 construct: made in house; host or cells: Sf-9 insect cells (baculovirus)
T3 sequence (P37059 1-387): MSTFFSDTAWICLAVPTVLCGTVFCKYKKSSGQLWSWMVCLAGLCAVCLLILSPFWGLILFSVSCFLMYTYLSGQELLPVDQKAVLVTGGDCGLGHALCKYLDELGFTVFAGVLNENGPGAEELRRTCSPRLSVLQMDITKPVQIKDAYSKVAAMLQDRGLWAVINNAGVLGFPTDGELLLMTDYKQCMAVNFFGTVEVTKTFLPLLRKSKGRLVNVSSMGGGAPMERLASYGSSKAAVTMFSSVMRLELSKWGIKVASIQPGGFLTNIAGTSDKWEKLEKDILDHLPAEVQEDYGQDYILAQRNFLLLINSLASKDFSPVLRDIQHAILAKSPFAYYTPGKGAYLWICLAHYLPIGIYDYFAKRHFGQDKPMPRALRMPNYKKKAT
How it was run: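 Single-point screen at 10 μM inhibitor, 1% DMSO: Sf-9-expressed human enzyme (105 nM), NAD 1 mM, ³H-labelled testosterone 56.25 nM, pH 8.5 phosphate/EDTA buffer, 30 min, room temperature. After TCA quench, substrate and product radioactivity quantified by UPLC with scintillation detection; inhibition percent from conversion.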

| Compound | inhibition at 0.5 µM [1] | inhibition at 10 µM [2] | inhibition at 10 µM [3] |
| --- | --- | --- | --- |
| N#CC(=C1CCN(C(=O)N2CCc3sccc3C2)CC1)c1ccc(Cl)cc1 [Compound 47] | 103% | 9% | 20% |
| N#CC(=C1CCN(C(=O)N2C[C@@H]3CC[C@@H]2C3)CC1)c1ccc(F)c(F)c1 [Compound 34, 2-(1-((1R,4R)-2-azabicyclo[2.2.1]heptane-2-carbonyl)piperidin-4-ylidene)-2-(3,4-difluorophenyl)acetonitrile] | 95% | 12% | 21% |
| N#CC(=C1CCN(C(=O)N2CCn3ncnc3C2)CC1)c1ccc(Cl)cc1 [Compound 164, 2-(4-chlorophenyl)-2-(1-(5,6,7,8-tetrahydro-[1,2,4]triazolo[1,5-a]pyrazine-7-carbonyl)piperidin-4-ylidene)acetonitrile] | 99% | 12% | 10% |
| N#CC(=C1CCN(C(=O)N2CCc3[nH]ncc3C2)CC1)c1ccc(Cl)cc1 [Compound 113, 2-(4-chlorophenyl)-2-(1-(4,5,6,7-tetrahydro-1H-pyrazolo[4,3-c]pyridine-5-carbonyl)piperidin-4-ylidene)acetonitrile] | 104% | 19% | 16% |
| N#CC(=C1CCN(C(=O)N2C3CCC2COC3)CC1)c1cccc(Cl)c1 [Compound 156, 2-(1-(3-oxa-8-azabicyclo[3.2.1]octane-8-carbonyl)piperidin-4-ylidene)-2-(3-chlorophenyl)acetonitrile] | 99% | 8% | 12% |
| N#CC(=C1CCN(C(=O)N2CCn3nncc3C2)CC1)c1ccc(C(F)(F)F)cc1 [Compound 150, 2-(1-(4,5,6,7-tetrahydro-[1,2,3]triazolo[1,5-a]pyrazine-5-carbonyl)piperidin-4-ylidene)-2-(4-(trifluoromethyl)phenyl)acetonitrile] | 100% | 21% | 6% |
| N#CC(=C1CCN(C(=O)N2CCC(S(N)(=O)=O)CC2)CC1)c1ccc(Cl)s1 [Compound 77, 1-(4-((5-chlorothiophen-2-yl)(cyano)methylene)piperidine-1-carbonyl)piperidine-4-sulfonamide] | 96% | 24% | 19% |
| N#CC(=C1CCN(C(=O)N2CCn3cncc3C2)CC1)c1ccc(Cl)cn1 [Compound 68, 2-(5-chloropyridin-2-yl)-2-(1-(5,6,7,8-tetrahydroimidazo[1,5-a]pyrazine-7-carbonyl)piperidin-4-ylidene)acetonitrile] | 98% | 11% | 8% |
| N#CC(=C1CCN(C(=O)N2CCn3ncnc3C2)CC1)c1ccc(F)cc1 [Compound 26, 2-(4-fluorophenyl)-2-(1-(5,6,7,8-tetrahydro-[1,2,4]triazolo[1,5-a]pyrazine-7-carbonyl)piperidin-4-ylidene)acetonitrile] | 97% | 6% | 13% |
| N#CC(=C1CCN(C(=O)N2CCc3nocc3C2)CC1)c1ccc(OC(F)(F)F)cc1 [Compound 159, 2-(1-(4,5,6,7-tetrahydroisoxazolo[4,3-c]pyridine-5-carbonyl)piperidin-4-ylidene)-2-(4-(trifluoromethoxy)phenyl)acetonitrile] | 100% | 14% | 1% |

Further lines, results first:

| inhibition at 0.5 µM [1] | inhibition at 10 µM [2] | inhibition at 10 µM [3] | Compound |
| --- | --- | --- | --- |
| 98% | 5% | 22% | Cn1ncc2cccc(C(C#N)=C3CCN(C(=O)N4CCn5cncc5C4)CC3)c21 [Compound 59, 2-(1-methyl-1H-indazol-7-yl)-2-(1-(5,6,7,8-tetrahydroimidazo[1,5-a]pyrazine-7-carbonyl)piperidin-4-ylidene)acetonitrile] |
| 93% | 2% | 17% | CCOC1CCN(C(=O)N2CCC(=C(C#N)c3ccc(C(F)(F)F)cc3)CC2)CC1 [Compound 128, 2-(1-(4-ethoxypiperidine-1-carbonyl)piperidin-4-ylidene)-2-(4-(trifluoromethyl)phenyl) acetonitrile] |
| 100% | 5% | 16% | COC1CCN(C(=O)N2CCC(=C(C#N)c3cccc4[nH]ncc34)CC2)CC1 [Compound 144, 2-(1H-indazol-4-yl)-2-(1-(4-methoxypiperidine-1-carbonyl)piperidin-4-ylidene)acetonitrile] |
| 93% | 6% | 21% | N#CC(=C1CCN(C(=O)N2CCC(O)CC2)CC1)c1cc(F)cc(F)c1 [Compound 58, 2-(3,5-difluorophenyl)-2-(1-(4-hydroxypiperidine-1-carbonyl)piperidin-4-ylidene)acetonitrile] |
| 90% | -4% | 4% | N#CC(=C1CCN(C(=O)N2CCC(O)CC2)CC1)c1ccc(Cl)cn1 [Compound 62, 2-(5-chloropyridin-2-yl)-2-(1-(4-hydroxypiperidine-1-carbonyl)piperidin-4-ylidene)acetonitrile] |
| 100% | 2% | 15% | COC1CCN(C(=O)N2CCC(=C(C#N)c3ccc(C(F)(F)F)cc3)CC2)CC1 [Compound 146, 2-(1-(4-methoxypiperidine-1-carbonyl)piperidin-4-ylidene)-2-(4-(trifluoromethyl)phenyl)acetonitrile] |
| 96% | 6% | 30% | CCOC1CCN(C(=O)N2CCC(=C(C#N)c3cccc4[nH]ncc34)CC2)CC1 [Compound 92, 2-(1-(4-ethoxypiperidine-1-carbonyl)piperidin-4-ylidene)-2-(1H-indazol-4-yl)acetonitrile] |
| 95% | 9% | 1% | CO[C@@H]1CCN(C(=O)N2CCC(=C(C#N)c3ccc(F)cc3)CC2)C1 [Compound 7, (R)-2-(4-fluorophenyl)-2-(1-(3-methoxypyrrolidine-1-carbonyl)piperidin-4-ylidene)acetonitrile] |
| 86% | -3% | 3% | N#CC(=C1CCN(C(=O)N2CCC(O)CC2)CC1)c1cccc2cn[nH]c12 [Compound 56, 2-(1-(4-hydroxypiperidine-1-carbonyl)piperidin-4-ylidene)-2-(1H-indazol-7-yl)acetonitrile] |
| 95% | 8% | 10% | N#CC(=C1CCN(C(=O)N2CCCC2)CC1)c1ccc(F)cc1 [Compound 6, 2-(4-fluorophenyl)-2-(1-(pyrrolidine-1-carbonyl)piperidin-4-ylidene)acetonitrile] |
| 96% | 21% | 23% | N#CC(=C1CCN(C(=O)N2CCC(CCO)CC2)CC1)c1cccc(Cl)c1 [Compound 140, 2-(3-chlorophenyl)-2-(1-(4-(2-hydroxyethyl)piperidine-1-carbonyl)piperidin-4-ylidene)acetonitrile] |
| 95% | -7% | 10% | COC1CCN(C(=O)N2CCC(=C(C#N)c3ccc(Cl)cn3)CC2)CC1 [Compound 81, 2-(5-chloropyridin-2-yl)-2-(1-(4-methoxypiperidine-1-carbonyl)piperidin-4-ylidene)acetonitrile] |
